Measurements reported in patent US20070128217A1 (priority 2003, published 2007).

Columns and labels:
[1] = system: control sera (pooled serum of ten healthy LUMC hospital workers; commercial negative donor pooled serum from the Dutch bloodbank); type: binding, human; set-up: Binding of Control serum LUMC to linear peptides / Binding of Control serum Blood-bank to linear peptides / Binding of Control serum LUMC to looped peptides / Binding of Control Serum Blood-Bank to Looped peptides / Binding of Control serum LUMC to linear peptides of the protein M of SARS-CoV Urbani / Binding of Control serum Blood-bank to linear peptides of the protein M of SARS-CoV Urbani / Binding of Control serum LUMC to looped peptides of the protein M of SARS-CoV Urbani / Binding of Control Serum Blood-Bank to Looped peptides of the protein M of SARS-CoV Urbani: unit not given here
[2] = system: antibodies in sera from SARS patients (sera 1a, 1b, 2, 6, 37, 62, London, SARS-yellow, SARS-green); type: binding, human; set-up: Binding of serum 6 to linear peptides of protein X1 of SARS-CoV Urbani / Binding of serum 37 to linear peptides of protein X1 of SARS-CoV Urbani / Binding of serum 6 to looped/cyclic peptide (PEPSCAN-ELISA) / Binding of serum 37 to looped/cyclic peptide (PEPSCAN-ELISA) / Binding of serum 37 to looped/cyclic peptides of protein X1 of SARS-CoV Urbani / Binding of serum 6 to linear peptides of protein X2 / Binding of serum 37 to linear peptides of protein X2 / Binding of serum 37 to looped/cyclic peptides of protein X2 of SARS-CoV Urbani / Binding of serum 6 to linear peptides of protein M of SARS-CoV Urbani / Binding of serum 37 to linear peptides of protein M of SARS-CoV Urbani / Binding of serum 6 to looped/cyclic peptides of protein M of SARS-CoV Urbani / Binding of serum 37 to looped/cyclic peptides of protein M of SARS-CoV Urbani / Binding of serum 6 to linear peptides of protein X3 of SARS-CoV Urbani / Binding of serum 37 to linear peptides of protein X3 of SARS-CoV Urbani / Binding of serum 37 to looped/cyclic peptides of protein X3 of SARS-CoV Urbani / Binding of serum 6 to linear peptides of protein X4 of SARS-CoV Urbani / Binding of serum 37 to linear peptides of protein X4 of SARS-CoV Urbani / Binding of serum 37 to looped/cyclic peptides of protein X4 of SARS-CoV Urbani / Binding of serum 6 to linear peptides of protein X5 of SARS-CoV Urbani / Binding of serum 37 to linear peptides of protein X5 of SARS-CoV Urbani / Binding of serum 37 to looped/cyclic peptides of protein X5 of SARS-CoV Urbani / Binding of serum 6 to linear peptides of protein N of SARS-CoV Urbani / Binding of serum 37 to linear peptides of protein N of SARS-CoV Urbani / Binding of serum 6 to linear peptide (PEPSCAN-ELISA) / Binding of serum 1a to looped/cyclic peptides of protein N of SARS-CoV Urbani / Binding of serum 1b to looped/cyclic peptides of protein N of SARS-CoV Urbani / Binding of serum 2 to looped/cyclic peptides of protein N of SARS-CoV Urbani / Binding of serum 6 to looped/cyclic peptides of protein N of SARS-CoV Urbani / Binding of serum 37 to looped/cyclic peptides of protein N of SARS-CoV Urbani / Binding of serum 62 to looped/cyclic peptides of protein N of SARS-CoV Urbani / Binding of serum London to looped/cyclic peptides of protein N of SARS-CoV Urbani / Binding of serum SARS-green to looped/cyclic peptides of protein N of SARS-CoV Urbani: unit not given here
[3] = system: rabbit serum obtained by immunizing a rabbit with the SARS-CoV strain Frankfurt 1; type: binding; set-up: Binding of a rabbit serum to linear peptides / Binding of a rabbit serum to looped peptides / Rabbit serum linear peptides / Rabbit serum looped peptides / Binding of a rabbit serum to linear peptides of protein N of SARS-CoV Urbani (Rabbit serum linear peptides) / Binding of a rabbit serum to looped/cyclic peptides of protein N of SARS-CoV Urbani (Rabbit serum looped peptides): unit not given here

## ENATFFIFNKLVKDP
[1]
  Binding of Control Serum Blood-Bank to Looped peptides: 0.7
  Binding of Control serum Blood-bank to linear peptides: 0.5
  Binding of Control serum LUMC to linear peptides: 0.4
  Binding of Control serum LUMC to looped peptides: 0.4
[2]
  Binding of serum 1a to linear peptides of protein X1 of SARS-CoV Urbani: 0.6
  Binding of serum 1a to looped/cyclic peptides of protein X1 of SARS-CoV Urbani: 0.4
  Binding of serum 1b to linear peptides of protein X1 of SARS-CoV Urbani: 0.4
  Binding of serum 1b to looped/cyclic peptides of protein X1 of SARS-CoV Urbani: 0.3
  Binding of serum 2 to linear peptides of protein X1 of SARS-CoV Urbani: 0.5
  Binding of serum 2 to looped/cyclic peptides of protein X1 of SARS-CoV Urbani: 0.5
  Binding of serum 6 to linear peptides of protein X1 of SARS-CoV Urbani: 0.4
  Binding of serum 6 to looped/cyclic peptides of protein X1 of SARS-CoV Urbani: 0.4
  Binding of serum 37 to linear peptides of protein X1 of SARS-CoV Urbani: 0.5
  Binding of serum 37 to looped/cyclic peptides of protein X1 of SARS-CoV Urbani: 0.4
  Binding of serum 62 to linear peptides of protein X1 of SARS-CoV Urbani: 0.4
  Binding of serum 62 to looped/cyclic peptides of protein X1 of SARS-CoV Urbani: 0.5
  Binding of serum London to linear peptides of protein X1 of SARS-CoV Urbani: 0.2
  Binding of serum London to looped/cyclic peptides of protein X1 of SARS-CoV Urbani: 0.2
  Binding of serum SARS-green to linear peptides of protein X1 of SARS-CoV Urbani: 0.0
  Binding of serum SARS-green to looped/cyclic peptides of protein X1 of SARS-CoV Urbani: 0.2
  Binding of serum SARS-yellow to linear peptides of protein X1 of SARS-CoV Urbani: 0.2
  Binding of serum SARS-yellow to looped/cyclic peptides of protein X1 of SARS-CoV Urbani: 0.2
[3]
  Binding of a rabbit serum to linear peptides: 0.1
  Binding of a rabbit serum to looped peptides: 0.5

## RTRSMWSFNPETNIL
[1]
  Binding of Control Serum Blood-Bank to Looped peptides of the protein M of SARS-CoV Urbani: 0.7
  Binding of Control serum Blood-bank to linear peptides of the protein M of SARS-CoV Urbani: 0.9
  Binding of Control serum LUMC to linear peptides of the protein M of SARS-CoV Urbani: 0.7
  Binding of Control serum LUMC to looped peptides of the protein M of SARS-CoV Urbani: 0.7
[2]
  Binding of serum 1a to linear peptides of protein M of SARS-CoV Urbani: 0.9
  Binding of serum 1a to looped/cyclic peptides of protein M of SARS-CoV Urbani: 0.7
  Binding of serum 1b to linear peptides of protein M of SARS-CoV Urbani: 0.8
  Binding of serum 1b to looped/cyclic peptides of protein M of SARS-CoV Urbani: 0.3
  Binding of serum 2 to linear peptides of protein M of SARS-CoV Urbani: 0.8
  Binding of serum 2 to looped/cyclic peptides of protein M of SARS-CoV Urbani: 0.8
  Binding of serum 6 to linear peptides of protein M of SARS-CoV Urbani: 0.4
  Binding of serum 6 to looped/cyclic peptides of protein M of SARS-CoV Urbani: 0.7
  Binding of serum 37 to linear peptides of protein M of SARS-CoV Urbani: 0.9
  Binding of serum 37 to looped/cyclic peptides of protein M of SARS-CoV Urbani: 0.9
  Binding of serum 62 to linear peptides of protein M of SARS-CoV Urbani: 0.9
  Binding of serum 62 to looped/cyclic peptides of protein M of SARS-CoV Urbani: 0.9
  Binding of serum London to linear peptides of protein M of SARS-CoV Urbani: 0.3
  Binding of serum London to looped/cyclic peptides of protein M of SARS-CoV Urbani: 0.2
  Binding of serum SARS-green to linear peptides of protein M of SARS-CoV Urbani: 0.3
  Binding of serum SARS-green to looped/cyclic peptides of protein M of SARS-CoV Urbani: 0.0
  Binding of serum SARS-yellow to linear peptides of protein M of SARS-CoV Urbani: 0.1
  Binding of serum SARS-yellow to looped/cyclic peptides of protein M of SARS-CoV Urbani: 0.7
[3]
  Rabbit serum linear peptides: 0.6
  Rabbit serum looped peptides: 0.4
